Assays:
[1] = biological target: T1, Brd4 bromodomain 1 (BRD4(1)) (Homo sapiens, UniProt O60885); assay: Inhibition of tetra-acetylated histone H4 binding to Brd4 bromodomain 1 (TR-FRET); parameters: key: Active: Compounds with an IC50 value less than 30 μM were deemed to be active.; Not Active: Compounds with an IC50 value less than 30 μM were deemed to be active; conditions: tetra-acetylated histone H4 peptide, active = IC50 <30 μM
T1 construct: Illustrative results with the first bromodomain of Brd4; made in house; host or cells: E. coli BL21 (DE3)
Experimental: (§1) Proteins were cloned and overexpressed with a N-terminal 6×His tag, then purified by nickel affinity followed by size exclusion chromatography. Briefly, E. coli BL21 (DE3) cells were transformed with a recombinant expression vector encoding N-terminally Nickel affinity tagged bromodomains from Brd2, Brd3, Brd4. Cell cultures were incubated at 37° C. with shaking to the appropriate density and induced overnight with IPTG. The supernatant of lysed cells was loaded onto Ni-IDA column for purification. Eluted protein is pooled, concentrated and further purified by size exclusion chromatography. Fractions representing monomeric protein were pooled, concentrated, aliquoted, and frozen at −80° C. for use in subsequent experiments.
(§2) Binding of tetra-acetylated histone H4 and BET bromodomains was confirmed by a Time Resolved Fluorescence Resonance Energy Transfer (TR-FRET) method. N-terminally His-tagged bromodomains (200 nM) and biotinylated tetra-acetylated histone H4 peptide (25-50 nM, Millipore) were incubated in the presence of Europium Cryptate-labeled streptavidin (Cisbio Cat. #610SAKLB) and XL665-labeled monoclonal anti-His antibody (Cisbio Cat. #61HISXLB) in a white 96 well microtiter plate (Greiner). For inhibition assays, serially diluted test compound was added to these reactions in a 0.2% final concentration of DMSO. Final buffer concentrations were 30 mM HEPES pH 7.4, 30 mM NaCl, 0.3 mM CHAPS, 20 mM phosphate pH 7.0, 320 mM KF, 0.08% BSA). After a 2-h incubation at room temperature, the fluorescence by FRET was measured at 665 and 620 nm by a SynergyH4 plate reader (Biotek). Illustrative results with the first bromodomain of Brd4 and the second bromodomain of Brd2 are shown below. The binding inhibitory activity was shown by a decrease in 665 nm fluorescence relative to 620 nm. IC50 values were determined from a dose response curve.

[2] = biological target: T2, second bromodomain of Brd2 (BRD2(2)) (Homo sapiens, UniProt P25440); assay: Inhibition of tetra-acetylated histone H4 binding to Brd2 bromodomain 2 (TR-FRET); parameters: key: Active: Compounds with an IC50 value less than 30 μM were deemed to be active.; Not Active: Compounds with an IC50 value less than 30 μM were deemed to be active; conditions: tetra-acetylated histone H4 peptide, active = IC50 <30 μM
T2 construct: made in house; host or cells: E. coli BL21 (DE3)
T2 sequence (P25440 344-453 limits assumed): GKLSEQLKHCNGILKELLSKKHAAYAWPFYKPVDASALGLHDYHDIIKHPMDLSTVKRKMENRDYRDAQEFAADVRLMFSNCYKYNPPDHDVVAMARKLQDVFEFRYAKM
Experimental: as §1, §2

Compound | FRET activity (IC50 <30 μM) BRD4(1) [1] | FRET activity (IC50 <30 μM) BRD2(2) [2]
O=c1ccc(-c2cnoc2)cn1Cc1ccccc1 [Example 58, 1-Benzyl-5-(isoxazol-4-yl)pyridin-2(1H)-one] | Not Active | Active
COc1ccc(Cn2nc(-c3c(C)noc3C)ccc2=O)cc1 [Example 33, 6-(3,5-Dimethylisoxazol-4-yl)-2-(4-methoxybenzyl)pyridazin-3(2H)-one] | Active | Active
Cc1noc(C)c1-c1ccc(=O)n(CC2CCC2)n1 [Example 88, 2-(Cyclobutylmethyl)-6-(3,5-dimethylisoxazol-4-yl)pyridazin-3(2H)-one] | Active | Active
Cc1noc(C)c1-c1nn(Cc2ccccc2)c(=O)c2ccccc12 [Example 170, 2-Benzyl-4-(3,5-dimethylisoxazol-4-yl)-2H-phthalazin-1-one] | Not Active | Active
Cc1noc(C)c1-c1ccc(=O)n(Cc2ncccn2)n1 [Example 3, 6-(3,5-Dimethylisoxazol-4-yl)-2-(pyrimidin-2-ylmethyl)pyridazin-3(2H)-one] | Not Active | Active
Cc1noc(C)c1-c1ccc(=O)n(Cc2ccccc2)c1Cl [Example 114, 1-Benzyl-6-chloro-5-(3,5-dimethylisoxazol-4-yl)pyridin-2(1H)-one] | Active | Active
Cc1noc(C)c1-c1ccc(=O)n(C(C)(C)c2ccccc2)c1 [Example 106, 5-(3,5-Dimethylisoxazol-4-yl)-1-(2-phenylpropan-2-yl)pyridin-2(1H)-one] | Active | Active
Cc1noc(C)c1-c1ccc(=O)n(C(=O)c2ccc(F)cc2)c1 [Example 68, 5-(3,5-Dimethylisoxazol-4-yl)-1-(4-fluorobenzoyl)pyridin-2(1H)-one] | Active | Active
Cc1noc(C)c1-c1ccc(=O)n(Cc2c(F)cc(F)cc2F)n1 [Example 92, 6-(3,5-Dimethylisoxazol-4-yl)-2-(2,4,6-trifluorobenzyl)pyridazin-3(2H)-one] | Active | Active
Cc1noc(C)c1Nc1ccc(=O)n(Cc2ccccc2)n1 [Example 61] | Active | Active
Cc1noc(C)c1-c1ccc(=O)n(CC2CCNCC2)c1 [Example 10, 5-(3,5-Dimethylisoxazol-4-yl)-1-(piperidin-4-ylmethyl)pyridin-2(1H)-one hydrochloric acid] | Active | Active
COc1cc(-c2ccc(=O)n(Cc3ccc(S(C)(=O)=O)cc3)n2)cc(OC)c1OC [Example 116, 2-(4-(Methylsulfonyl)benzyl)-6-(3,4,5-trimethoxyphenyl)pyridazin-3(2H)-one] | Active | Active
Cc1[nH]cnc1-c1ccc(=O)n(Cc2ccccc2)c1 [Example 81, 1-Benzyl-5-(5-methyl-1H-imidazol-4-yl)pyridin-2(1H)-one] | Not Active | Active
Cc1noc(C)c1-c1ccc(=O)n(Cc2ccc(OC(F)(F)F)cc2)n1 [Example 76, 6-(3,5-Dimethylisoxazol-4-yl)-2-(4-(trifluoromethoxy)benzyl)pyridazin-3(2H)-one] | Active | Active
Cc1noc(C)c1-c1ccc(=O)n(Cc2ccc3nccnc3c2)c1 [Example 18, 5-(3,5-Dimethylisoxazol-4-yl)-1-(quinoxalin-6-ylmethyl)pyridin-2(1H)-one] | Active | Active
Cc1oncc1-c1ccc(=O)n(Cc2ccccc2)c1 [Example 57, 1-Benzyl-5-(5-methylisoxazol-4-yl)pyridin-2(1H)-one] | Active | Active
Cc1noc(C)c1-c1cc(C2CC2)c(=O)n(Cc2ccccc2)c1 [Example 67, 1-Benzyl-3-cyclopropyl-5-(3,5-dimethylisoxazol-4-yl)pyridin-2(1H)-one] | Active | Active
Cc1noc(C)c1-c1ccc(=O)n(Cc2cccc(OC(F)(F)F)c2)n1 [Example 36, 6-(3,5-Dimethylisoxazol-4-yl)-2-(3-(trifluoromethoxy)benzyl)pyridazin-3(2H)-one] | Active | Active
O=c1ccc(-c2cncs2)cn1Cc1ccccc1 [Example 80, 1-Benzyl-5-(thiazol-5-yl)pyridin-2(1H)-one] | Not Active | Active
Cc1noc(C)c1-c1ccc(=O)n(CC2CC2)c1 [Example 48, 1-(Cyclopropylmethyl)-5-(3,5-dimethylisoxazol-4-yl)pyridin-2(1H)-one] | Active | Active
Cc1noc(C)c1-c1ccc(=O)n(Cc2cccc(C(F)(F)F)c2)n1 [Example 31, 6-(3,5-Dimethylisoxazol-4-yl)-2-(3-(trifluoromethyl)benzyl)pyridazin-3(2H)-one] | Active | Active
Cc1noc(C)c1-c1ccc(=O)n([C@@H](C)c2ccc(F)cc2)c1 (single isomer, unassigned) [Example 110] | Active | Active
Cc1noc(C)c1-c1ccc(=O)n(C(=O)c2ccc(Cl)cc2)c1 [Example 69, 1-(4-Chlorobenzoyl)-5-(3,5-dimethylisoxazol-4-yl)pyridin-2(1H)-one] | Active | Active
Cc1nnc(C)n1-c1ccc(=O)n(Cc2ccc(Cl)cc2)c1 [Example 197, 1-(4-chlorobenzyl)-5-(3,5-dimethyl-4H-1,2,4-triazol-4-yl)pyridin-2(1H)-one] | Not Active | 
Cc1noc(C)c1-c1cc(Nc2ccc(F)cc2)c(=O)n(Cc2ccccc2)c1 [Example 156, 1-Benzyl-5-(3,5-dimethylisoxazol-4-yl)-3-((4-fluorophenyl)amino)pyridin-2(1H)-one] | Active | 
O=C1CC(c2ccc(=O)n(Cc3ccccc3)c2)CN1 (stereo not drawn) [Example 268, 1-Benzyl-5-(5-oxopyrrolidin-3-yl)pyridin-2(1H)-one] | Not Active | 
Cc1noc(C)c1-c1cc(NCC(F)(F)F)c(=O)n(Cc2ccc(Cl)cc2)c1 [Example 243, 1-(4-Chlorobenzyl)-5-(3,5-dimethylisoxazol-4-yl)-3-((2,2,2-trifluoroethyl)amino)pyridin-2(1H)-one] | Active | 
Cc1noc(C)c1-c1cc(N)c(=O)n(C(C)c2ccc(C#N)cc2)c1 (stereo not drawn) [Example 269, 4-(1-(3-amino-5-(3,5-dimethylisoxazol-4-yl)-2-oxopyridin-1(2H)-yl)ethyl)benzonitrile] | Not Active | 

Source: patent publication US9271978B2 (Zenith Epigenetics Corp., priority 2012, dated 2016)
